Where “and” joins values, the source holds several entries; their conditions need not be identical. Equal values may be shown once. Read-outs that look alike come from different tables or passages of the source.
Assays:
[1] = tested on: T. brucei NY-SM cells; assay: Susceptibility assay, NY-SM cells; type: cell-based, Trypanosoma brucei brucei
Experimental: (§1) Susceptibility assays with NY-SM[51], BS221[48] and TbAT1-KO[48] (derived from BS221) cells were performed using 10 concentrations of a 4-fold compound dilution series starting at 64 µM. Parasites were seeded at 4 × 10^3 parasites per well and exposed to drug compound for 72 h, after which resazurin (final concentration of 10 µg mL^−1) was added to the plates. Fluorescence intensities were determined after 6 h.

[2] = tested on: RNAi clones targeting adenosine kinase (ADKIN; Tb927.6.2300) in T. brucei NY-SM cells; assay: Susceptibility of ADKIN RNAi clones (tetracycline-induced / non-induced); type: cell-based, Trypanosoma brucei brucei; conditions: for IC50: single determinations
Experimental: as §1
The RNAi library[54] was induced for 68 h by the addition of 1 µg mL^−1 of tetracycline. After induction, the cells were exposed to different concentrations of 9 (corresponding to the IC98, IC99). Cells were maintained until a recovery of the resistant population was observed. Genomic DNA of the resistant parasite population was isolated, and the RNAi inserts were identified by PCR amplification, followed by cloning in highly competent Escherichia coli and sequencing. To validate the involvement of the identified genes, the RNAi inserts were back-cloned into a p2T7Bern vector[54] and transformed into NY-SM cells (the background strain of the RNAi library). The transformed NY-SM cells were cloned by limiting dilution. Two clones of each RNAi insert were exposed to tetracycline to induce the RNAi phenotype and subsequently subjected to different concentrations of 9 to determine the susceptibility of induced versus non-induced clones.
Drug susceptibility assays with induced clones were performed as described above for NY-SM cells, with an initial induction period of 68 h with 1 µg mL^−1 tetracycline prior to the start of the drug susceptibility assay.

[3] = tested on: bloodstream form T. brucei 427WT; assay: Wash-out experiments with T. brucei; type: cell-based, Trypanosoma brucei
Experimental: Wash-out experiments with T. brucei
A culture of bloodstream form T. brucei 427WT, at mid-log phase of growth, was harvested and resuspended at a density of 10^5 cells mL-1, in fresh medium containing either no test compound, or […]
The cultures were incubated under standard conditions (37 °C/5% CO2) and cell counts were performed manually using a haemocytometer under phase contrast microscopy, every 24 h. The culture in continuous presence of analogue 9 was split in two at 8 h and 48 h (as indicated with arrows in Supplementary Figure S2). The split cultures were centrifuged and resuspended in the same volume of either fresh medium without test compound or fresh medium with the same concentration of compound 9 as before, reincubated. The detection limit for the manual cell count was 10^4 cells mL-1. […]

[4] = tested on: T. brucei Lister 427 cells; assay: Nucleotide pool analysis (HPLC); type: cell-based, Trypanosoma brucei; conditions: 25 μM, versus untreated trypanosomes
Source text: (1 picture or pasted object on this page, not shown here)
The following primers were used: […]

[5] = tested on: T. brucei NY-SM cells; assay: Cell cycle analysis by flow cytometry; type: cell-based, Trypanosoma brucei
Experimental: After 24 h, the cells were harvested and washed with PBS before staining with Hoechst 33342 at 5 µg mL^−1 for 25 min at 37 °C. Cells were analysed on a MACSQuant flow cytometer (Miltenyi Biotec) using the FlowJo X software package.

Nc1ncnc2c1ccn2[C@@H]1O[C@H](CO)C[C@H]1O [Compound 9, 3’-deoxytubercidin]
IC50 ([1]; NYsm parental cells, single replicates, read-out: IC50): 7.98 nM and 7.87 nM
Inhibition (%) ([1]; NYsm, 0.000244141 µM): 0% and 3.5% and 5.32% and 2.3%
Inhibition (%) ([1]; NYsm, 0.000976563 µM): 5.56% and 15% and 14% and 7%
Inhibition (%) ([1]; NYsm, 0.00390625 µM): 52% and 44%
Inhibition (%) ([1]; NYsm, 0.015625 µM): 98%
Inhibition (%) ([1]; NYsm, 1 µM): 98%
IC50 ([1]; Trypanosoma brucei, NYsm parental cells, single replicates, read-out: IC50): 7.92 nM
inhibition at 0.00390625 µM ([1]; Trypanosoma brucei, NYsm, 0.00390625 µM): 53%
inhibition at 0.015625 µM ([1]; Trypanosoma brucei, NYsm, 0.015625 µM): 99%
inhibition at 0.0625 µM ([1]; Trypanosoma brucei, NYsm, 0.0625 µM): 99%
inhibition at 0.25 µM ([1]; Trypanosoma brucei, NYsm, 0.25 µM): 100%
inhibition at 1 µM ([1]; Trypanosoma brucei, NYsm, 1 µM): 100%
inhibition at 4 µM ([1]; Trypanosoma brucei, NYsm, 4 µM): 100%
inhibition at 16 µM ([1]; Trypanosoma brucei, NYsm, 16 µM): 100%
inhibition at 64 µM ([1]; Trypanosoma brucei, NYsm, 64 µM): 100%
IC50 ([1]; Trypanosoma brucei, single determinations, read-out: IC50, NYsm): 5.2 nM
IC50 ([1]; single determinations, read-out: IC50, NYsm): 5.9 nM and 6.6 nM and 3.6 nM and 4.6 nM and 3.7 nM and 6.4 nM
fold reduced susceptibility in ADKIN knockdown cell lines [2]: ~ 20 fold
Inhibition (%) ([2]; ADKIN A +, 0.000976563 µM): 2.55%
Inhibition (%) ([2]; ADKIN A +, 0.00390625 µM): 2.6%
Inhibition (%) ([2]; ADKIN A +, 0.0625 µM): 42% and 36% and 30%
Inhibition (%) ([2]; ADKIN A +, 0.25 µM): 91% and 95%
Inhibition (%) ([2]; ADKIN B +, 0.25 µM): 93% and 91% and 98%
inhibition at 0.0625 µM ([2]; Trypanosoma brucei, ADKIN A +, 0.0625 µM): 33%
inhibition at 0.25 µM ([2]; Trypanosoma brucei, ADKIN A +, 0.25 µM): 94%
inhibition at 1 µM ([2]; Trypanosoma brucei, ADKIN A +): 99%
inhibition at 4 µM ([2]; Trypanosoma brucei, ADKIN A +): 99%
inhibition at 16 µM ([2]; Trypanosoma brucei, ADKIN A +): 100%
inhibition at 64 µM ([2]; Trypanosoma brucei, ADKIN A +): 99%
inhibition at 0.000244141 µM ([2]; Trypanosoma brucei, ADKIN B +, 0.000244141 µM): 0%
inhibition at 0.000976563 µM ([2]; Trypanosoma brucei, ADKIN B +, 0.000976563 µM): 0%
inhibition at 0.00390625 µM ([2]; Trypanosoma brucei, ADKIN B +, 0.00390625 µM): 0%
inhibition at 0.015625 µM ([2]; Trypanosoma brucei, ADKIN B +, 0.015625 µM): 0%
inhibition at 0.25 µM ([2]; Trypanosoma brucei, ADKIN B +, 0.25 µM): 96%
inhibition at 1 µM ([2]; Trypanosoma brucei, ADKIN B +): 99%
inhibition at 4 µM ([2]; Trypanosoma brucei, ADKIN B +): 99%
inhibition at 16 µM ([2]; Trypanosoma brucei, ADKIN B +): 100%
inhibition at 64 µM ([2]; Trypanosoma brucei, ADKIN B +): 100%
EC50 ([2]; Trypanosoma brucei, read-out: EC50, ADKIN RNAi clones before knockdown): 7.7 ± 0.17 nM
EC50 ([2]; Trypanosoma brucei, read-out: EC50 upon ADKIN knockdown): 100 ± 5 nM
IC50 ([2]; Trypanosoma brucei, read-out: IC50, ADKIN A +, clone A, tetracycline-induced): 101 nM
IC50 ([2]; Trypanosoma brucei, read-out: IC50, ADKIN A -, clone A, non-induced): 6.9 nM
IC50 ([2]; Trypanosoma brucei, read-out: IC50, ADKIN B +, clone B, tetracycline-induced): 98.5 nM
IC50 ([2]; read-out: IC50, ADKIN A +, clone A, tetracycline-induced): 117 nM and 123 nM and 92 nM and 78.4 nM and 88.9 nM and 95.7 nM and 111 nM
IC50 ([2]; read-out: IC50, ADKIN A -, clone A, non-induced): 7.7 nM and 7.2 nM and 8.1 nM and 7.9 nM and 8.3 nM and 7.8 nM and 7.4 nM
IC50 ([2]; read-out: IC50, ADKIN B +, clone B, tetracycline-induced): 110 nM and 121 nM and 120 nM (2×) and 109 nM and 132 nM and 127 nM
parasites recovered after wash-out ([3]; 0.500 µM, 48 h of exposure and subsequent removal, up to 120 h): no parasites were recovered
Manual cell count ([3]; Exp. 1, 0.165 µM, 8 h wash, 8 h): 60000 cells mL-1
Manual cell count ([3]; Exp. 1, 0.165 µM, 8 h wash, 24 h): 10000 cells mL-1
Manual cell count ([3]; Exp. 1, 0.165 µM, 8 h wash, 48 h): 40000 cells mL-1
Manual cell count ([3]; Exp. 1, 0.165 µM, 8 h wash, 72 h): 600000 cells mL-1
Manual cell count ([3]; Exp. 1, 0.165 µM, 8 h wash, 96 h): 3800000 cells mL-1
Manual cell count ([3]; Exp. 1, 0.165 µM, 8 h wash, 120 h): 1300000 cells mL-1
Manual cell count ([3]; Exp. 1, 0.165 µM, 48 h wash, 72 h): 20000 cells mL-1
Manual cell count ([3]; Exp. 1, 0.165 µM, 48 h wash, 96 h): 40000 cells mL-1
Manual cell count ([3]; Exp. 1, 0.165 µM, 48 h wash, 120 h): 280000 cells mL-1
Manual cell count ([3]; Exp. 1, 0.165 µM, Continuous, 8 h): 120000 cells mL-1
Manual cell count ([3]; Exp. 1, 0.165 µM, Continuous, 96 h): 10000 cells mL-1
Manual cell count ([3]; Exp. 1, 0.165 µM, Continuous, 120 h): 30000 cells mL-1
Manual cell count ([3]; Exp. 2, 0.500 µM, 8 h wash, 8 h): 55000 cells mL-1
Manual cell count ([3]; Exp. 2, 0.500 µM, 8 h wash, 24 h): 10000 cells mL-1
Manual cell count ([3]; Exp. 2, 0.500 µM, 8 h wash, 48 h): 10000 cells mL-1
Manual cell count ([3]; Exp. 2, 0.500 µM, 8 h wash, 72 h): 10000 cells mL-1
Manual cell count ([3]; Exp. 2, 0.500 µM, 8 h wash, 96 h): 30000 cells mL-1
Manual cell count ([3]; Exp. 2, 0.500 µM, 8 h wash, 120 h): 430000 cells mL-1
Manual cell count ([3]; Exp. 2, 0.500 µM, Continuous, 8 h): 110000 cells mL-1
effect on intracellular purine and pyrimidine nucleotide pools [4]: did not cause any change in the balance or total quantity of intracellular purine and pyrimidine nucleotides
# cells 2N ([5]; 1.4 nM): 18946 and 19862
# cells 4N ([5]; 1.4 nM): 4825 and 4846
# cells S ([5]; 1.4 nM): 16441 and 16011
% of cells 2N ([5]; 1.4 nM): 44.3% and 46.2%
% of cells 4N ([5]; 1.4 nM): 11.3%
% of cells S ([5]; 1.4 nM): 38.5% and 37.2%
# cells 2N ([5]; 3.5 nM): 19884 and 19251
# cells 4N ([5]; 3.5 nM): 4669 and 4555
# cells S ([5]; 3.5 nM): 15056 and 15140
% of cells 2N ([5]; 3.5 nM): 47.3% and 46.7%
% of cells 4N ([5]; 3.5 nM): 11.1%
% of cells S ([5]; 3.5 nM): 35.9% and 36.8%
# cells 2N ([5]; 7 nM): 18100 and 17699
# cells 4N ([5]; 7 nM): 3787 and 3626
# cells S ([5]; 7 nM): 10717 and 10604
% of cells 2N ([5]; 7 nM): 51.1% and 50%
% of cells 4N ([5]; 7 nM): 10.7% and 10.2%
% of cells S ([5]; 7 nM): 30.2% and 29.9%
cell cycle analysis: impact on DNA synthesis ([5]; 24 h, various concentrations): no major impact on DNA synthesis
